# Like-named read-outs stand apart in the source and are kept apart here.
# Test: Terminal plasma and brain concentrations in AC-MES studies (UHPLC-MS/MS)
# Assay type: in vivo, mouse
# Conditions: CF-1, mouse, in vivo; for Kp at 2 h: read-out: B/P Ratio
# Description: Sample Collection and Preparation: Mice were anesthetized by isoflurane inhalation (according to SOP TECH-018) until they reached a surgical plane of anesthesia. Then a syringe (1 mL syringe with a 22 gauge needle) was inserted under the sternum into the heart (according to SOP TECH-031). Approximately 0.5 mL of blood was collected, deposited into a K2EDTA tube, and stored on ice. Animals were then euthanized by cervical dislocation. Brains were removed, placed into a pre-weighed vial, and snap frozen on dry ice. At the end of the sample collection, blood was centrifuged at 4000 rpm for 10 minutes at 4° C., and the plasma pipetted into a labeled tube. All samples were stored in a −80° C. freezer until the time of bioanalysis.
# Plasma Samples: Extraction of plasma samples was carried out by protein precipitation using acetonitrile. Diluted plasma samples (50 μL) were mixed with 50 μL of internal standard (IS) solution in 1:1 acetonitrile:water (v:v) followed by addition of 200 μL of acetonitrile. Samples were vortexed for 30 seconds, centrifuged at 13,000 rpm for 20 minutes, decanted into a 96-well plate and further centrifuged at 4000 rpm for 20 minutes. The samples were analyzed by ultra-high performance liquid chromatography electrospray ionization tandem mass spectrometry (UHPLC-ESI-MS/MS) as described in the bioanalysis procedure below.
# Brain Samples: Prior to extraction, pre-weighed whole brains were homogenized in 1:1 acetonitrile:water (v:v) (2 mL per mouse brain) using an IKA T18 Ultra-Turrax Homogenizer at the setting of 4 for approximately 1 minute. The homogenate was centrifuged at 13,000 rpm for 20 minutes and 50 μL of the supernatant were treated exactly as described in above for plasma samples.
# Bioanalysis Procedures: All samples, including plasma and brain homogenate extracts (including calibration standards and quality control (QC) samples prepared in K2EDTA mouse plasma), were extracted by protein precipitation. To each 50 μL aliquot of sample, 50 μL of IS solution (2500 ng/mL of Lacosamide in water:acetonitrile (1:1)) and 50 μL of 6% (v:v) phosphoric acid in water were added, then 200 μL acetonitrile was added. The samples in 1.7 mL tubes were vortex-mixed then centrifuged for 20 minutes at 13,000 rpm. Fifty microliters of the supernatant was mixed with 150 μL of water:acetonitrile (1:1) in a 96 well plate, which was centrifuged post-mixing for 20 minutes at 4000 rpm. The samples were then ready for UHPLC-MS/MS analysis.
# Samples were analyzed for Compound A by a research-grade UHPLC-MS/MS method using the conditions listed below.
# Samples were analyzed for Lacosamide by a research-grade UHPLC-MS/MS method using the conditions listed below.
# At least three QC samples, one at each concentration, had to show back-calculated values within ±20% of their nominal concentrations for the whole sample batch to be valid.
# The Blinding and Randomization, Clinical Observations, AC-MES Assay, Sample Collection and Preparation, Plasma and Brain Samples Analysis, and Bioanalysis Procedures in Example 4 were identical to those used in Example 2.
# Sample concentration determination and Data Processing and Analysis in Example 4 was identical to Example 2.
structure (smiles),measurement,setting,value
"COC[C@@H](NC(C)=O)C(=O)NCc1ccccc1 [Lacosamide, reference compound]",Kp at 2 h,"6 mg/kg, Study 2A, Lacosamide 6 mg/kg PO, 2 h",0.54
same,concentration at 2 h,"6 mg/kg, Study 2A, Lacosamide 6 mg/kg PO, 2 h, read-out: Mean Brain",4.85 µM
same,concentration at 2 h,"6 mg/kg, Study 2A, Lacosamide 6 mg/kg PO, 2 h, read-out: Mean Plasma",9.07 µM
same,Kp at 2 h,"6 mg/kg, Study 2D, Lacosamide 6 mg/kg PO, 2 h",1.15
same,concentration at 2 h,"6 mg/kg, Study 2D, Lacosamide 6 mg/kg PO, 2 h, read-out: Mean Brain",7.95 µM
same,concentration at 2 h,"6 mg/kg, Study 2D, Lacosamide 6 mg/kg PO, 2 h, read-out: Mean Plasma",6.9 µM
same,Kp at 2 h,"8 mg/kg, Study 2A, Lacosamide 8 mg/kg PO, 2 h",0.58
same,concentration at 2 h,"8 mg/kg, Study 2A, Lacosamide 8 mg/kg PO, 2 h, read-out: Mean Brain",6.27 µM
same,concentration at 2 h,"8 mg/kg, Study 2A, Lacosamide 8 mg/kg PO, 2 h, read-out: Mean Plasma",10.8 µM
same,Kp at 2 h,"10 mg/kg, Study 2B, Lacosamide 10 mg/kg PO, 2 h",0.21
same,concentration at 2 h,"10 mg/kg, Study 2B, Lacosamide 10 mg/kg PO, 2 h, read-out: Mean Brain",2.63 µM
same,concentration at 2 h,"10 mg/kg, Study 2B, Lacosamide 10 mg/kg PO, 2 h, read-out: Mean Plasma",12.6 µM
same,Kp at 2 h,"10 mg/kg, Study 2C, Lacosamide 10 mg/kg PO, 2 h, alone",0.28
same,concentration at 2 h,"10 mg/kg, Study 2C, Lacosamide 10 mg/kg PO, 2 h, alone, read-out: Mean Brain",4.84 µM
same,concentration at 2 h,"10 mg/kg, Study 2C, Lacosamide 10 mg/kg PO, 2 h, alone, read-out: Mean Plasma",17.1 µM
same,Kp at 2 h,"20 mg/kg, Study 2D, Lacosamide 20 mg/kg PO, 2 h",1.12
same,concentration at 2 h,"20 mg/kg, Study 2D, Lacosamide 20 mg/kg PO, 2 h, read-out: Mean Brain",26.8 µM
same,concentration at 2 h,"20 mg/kg, Study 2D, Lacosamide 20 mg/kg PO, 2 h, read-out: Mean Plasma",23.9 µM
same,Kp at 2 h,"Study 2C, analyte Lacosamide, 10 mg/kg PO 2 h + Compound A 3 mg/kg PO 0.5 h",0.29
same,concentration at 2 h,"Study 2C, analyte Lacosamide, 10 mg/kg PO 2 h + Compound A 3 mg/kg PO 0.5 h, read-out: Mean Brain",4.52 µM
same,concentration at 2 h,"Study 2C, analyte Lacosamide, 10 mg/kg PO 2 h + Compound A 3 mg/kg PO 0.5 h, read-out: Mean Plasma",15.5 µM
